The source of these data is patent US20260365618A1 (priority 2022, published 2026).

For the test, the system named is F. tularensis subsp. holarctica. The experiment in a line: microbe, parasite or virus in culture. Conditions: Francisella tularensis, 48 h. The format is cell-based, Francisella tularensis subsp. holarctica.

Converted amounts (≈) assume the structure as drawn.

`CC[C@H]1OC(=O)[C@H](C)[C@@H](O[C@H]2C[C@@](C)(OC)[C@@H](O)[C@H](C)O2)[C@H](C)[C@@H](O[C@@H]2O[C@H](C)C[C@H](N(C)C)[C@H]2O)[C@](C)(O)C[C@@H](C)C(=O)[C@H](C)[C@@H](O)[C@]1(C)O` [Erythromycin] came in with an MIC50 of 8 µg/mL (≈ 10.9 µM).
Regarding `C=C[C@]1(C)C[C@@H](OC(=O)CS[C@@H]2CC[C@@H](N)C[C@H]2O)[C@]2(C)[C@H](C)CC[C@]3(CCC(=O)[C@H]32)[C@@H](C)[C@@H]1O` [Lefamulin, 14-O-{[(1R, 2R, 4R)-4-amino-2-hydroxy-cyclohexylsulfanyl]-acetyl}-mutilin], the MIC50 is 4 µg/mL (≈ 7.88 µM). Also, the MIC (read-out: MIC Range) lay in the range of 0.5 to 8 µg/mL (≈ 0.985 to 15.8 µM).
